Measurements published in PubChem BioAssay AID1963966 (Molecular Pharmacology Branch, DTP, NCI, 2024).

Test system: 935938-334-R-J1-PDC spheroids with HUVEC/MSC, viability
Assay: Anticancer human tumor 935938-334-R-J1-PDC patient-derived small intestine adenocarcinoma cell line growth inhibition [PI3K]
Conditions: for IC50: curve of first compound; for viability, T/C: stronger effect = lower value
In short: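 Complex 3D spheroids (cancer cells + endothelial HUVEC + mesenchymal stem cells); drug pairs of targeted agent x inavolisib/alpelisib/duvelisib/copanlisib; half-log series from ~Cmax, max 10 microM if Cmax unknown; endpoint viability.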
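Further: compound exposure lasted seven days before viability was read.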
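Wherever viability, T/C is given: percent of vehicle DMSO treated spheroid viability so 100% = untreated.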

`Cn1cnc2c(F)c(Nc3ccc(Br)cc3Cl)c(C(=O)NOCCO)cc21` + CC(Nc1ncnc2nc[nH]c12)c1cc2cccc(Cl)c2c(=O)n1-c1ccccc1 showed an IC50 (second compound 0.0316 µM) of 68.7 nM, an IC50 (second compound 0.1 µM) of 110 nM and an IC50 (second compound 0.316 µM) of 78.4 nM. It also gave an IC50 (second compound 1 µM) of 81.4 nM, an IC50 (second compound 3.16 µM) of 30.5 nM and an IC50 (second compound 10 µM) of 51.5 nM. For the same compound, the viability, T/C (second compound 0.0316 µM, first compound 0.00949 µM) was 82.2%, the viability, T/C (second compound 0.0316 µM, first compound 0.03 µM) was 63.5% and the viability, T/C (second compound 0.0316 µM, first compound 0.0949 µM) was 43.2%. It also gave a viability, T/C (second compound 0.0316 µM, first compound 0.3 µM) of 34.5%, a viability, T/C (second compound 0.0316 µM, first compound 0.949 µM) of 27.5% and a viability, T/C (second compound 0.0316 µM, first compound 3 µM) of 21.8%. For the same compound, the viability, T/C (second compound 0.1 µM, first compound 0.00949 µM) was 76%, the viability, T/C (second compound 0.1 µM, first compound 0.03 µM) was 71.7% and the viability, T/C (second compound 0.1 µM, first compound 0.0949 µM) was 47.4%. For the same compound, the viability, T/C (second compound 0.1 µM, first compound 0.3 µM) was 38.2%, the viability, T/C (second compound 0.1 µM, first compound 0.949 µM) was 30.9% and the viability, T/C (second compound 0.1 µM, first compound 3 µM) was 20.8%. For the same compound, the viability, T/C (second compound 0.316 µM, first compound 0.00949 µM) was 73.5%, the viability, T/C (second compound 0.316 µM, first compound 0.03 µM) was 70.4% and the viability, T/C (second compound 0.316 µM, first compound 0.0949 µM) was 41.4%. It also gave a viability, T/C (second compound 0.316 µM, first compound 0.3 µM) of 35.4%, a viability, T/C (second compound 0.316 µM, first compound 0.949 µM) of 22.3% and a viability, T/C (second compound 0.316 µM, first compound 3 µM) of 20%. For the same compound, the viability, T/C (second compound 1 µM, first compound 0.00949 µM) was 73.9%, the viability, T/C (second compound 1 µM, first compound 0.03 µM) was 65.6% and the viability, T/C (second compound 1 µM, first compound 0.0949 µM) was 47.7%. The viability, T/C (second compound 1 µM, first compound 0.3 µM) was 30.9%, the viability, T/C (second compound 1 µM, first compound 0.949 µM) was 26.2% and the viability, T/C (second compound 1 µM, first compound 3 µM) was 22.6%. The viability, T/C (second compound 3.16 µM, first compound 0.00949 µM) was 51%, the viability, T/C (second compound 3.16 µM, first compound 0.03 µM) was 56.6% and the viability, T/C (second compound 3.16 µM, first compound 0.0949 µM) was 38.6%. For the same compound, the viability, T/C (second compound 3.16 µM, first compound 0.3 µM) was 30.6%, the viability, T/C (second compound 3.16 µM, first compound 0.949 µM) was 27.4% and the viability, T/C (second compound 3.16 µM, first compound 3 µM) was 16%. For the same compound, the viability, T/C (second compound 10 µM, first compound 0.00949 µM) was 65.2%, the viability, T/C (second compound 10 µM, first compound 0.03 µM) was 59.6% and the viability, T/C (second compound 10 µM, first compound 0.0949 µM) was 39.4%. For the same compound, the viability, T/C (second compound 10 µM, first compound 0.3 µM) was 25.6%, the viability, T/C (second compound 10 µM, first compound 0.949 µM) was 22.6% and the viability, T/C (second compound 10 µM, first compound 3 µM) was 17.6%.
